From patent US20220401324A1, “COSMETIC PREPARATION WITH ANISIC ACID AND LEVULINIC ACID, HAVING SELECTIVE ANTIMICROBIAL EFFECT” (BEIERSDORF AG, priority 2019, published 2022) come the findings set out here.

In assay [1] the test system is C. acnes (DSM 1897). Nature of the assay: Suspension test with C. acnes. The assay is classed as cell-based, Cutibacterium acnes. The settings on record: anaerobic medium, sampled after 1 h, 3 h and 6 h. The procedure:
(§1) The effect of the formulations according to the invention was further tested in suspension tests with S. epidermidis and C. acnes. […] These liquid stock cultures were used to prepare a first passage. Here, a sterile disposable inoculation loop was used to streak the relevant culture on an agar plate (C. acnes: COST agar, S. epidermidis: COAST agar) and the culture was then incubated. The cultures of C. acnes were incubated at 37° C. for 5 days, whereas the cultures of S. epidermidis were incubated at 37° C. for 24 h. Said first passage was then used to prepare a second passage by picking of a few colonies using a sterile disposable inoculation loop and subsequent streaking thereof onto a new agar plate. Said second passage was then incubated at the appropriate temperature for 5 days or 24 h. The second passage obtained was then used for the suspension test.
(§2) To prepare the suspensions, a few colonies of the second passage were removed using a sterile inoculation loop and added to 10 mL of medium in a baffled flask containing 5 g of glass beads (4 mm diameter) and gently shaken for 3 min. Thereafter, optical density (OD) was used to set the approximate number of cells per mL. Optical density was determined at 600 nm using an Eppendorf photometer. The OD obtained was adjusted to a value around 0.8 (±0.01) and then diluted again 1:50. […]

Assay [2] has as its system S. epidermidis (DSM 1798). Nature of the assay: Suspension test with S. epidermidis. The assay is classed as cell-based, Staphylococcus epidermidis. The settings on record: BHI medium, sampled after 1 h, 3 h and 6 h. The protocol: as §1, §2

Turning to `COc1ccc(C(=O)O)cc1` [anisic acid, 4-methoxybenzoic acid], the “cell count of the anaerobic bacterium C. acnes (FIGS. 4 and 5)” value in assay [1] was “does not lead to a reduction in the cell count”. The “growth of the aerobic bacterium S. epidermidis (FIGS. 4 and 5)” value in assay [2] was “does not significantly affect the growth”.
The matching figures for `CC(=O)CCC(=O)O` [levulinic acid, 4-oxopentanoic acid]: “does not lead to a reduction in the cell count” and “does not significantly affect the growth”.
